# Experimental data as given in patent publication US11198680B2 (BioAxone BioSciences, Inc., priority 2016, dated 2021).
# Where two headings read alike, the source gives them in different places.
# Columns and labels:
# [1] = test system: ROCK2 activation (phospho-cofilin); assay: Transient MCAO stroke model, phospho-cofilin Western blot left versus right brain; type: in vivo, mouse
# Experimental: The murine intraluminal monofilament model of middle cerebral artery occlusion (MCAO) is used on mice in this study. MCAO involves the insertion of a surgical filament into the external carotid artery and threading it forward into the internal carotid artery until the tip occludes the origin of the MCA, resulting in a cessation of blood flow and subsequent brain infarction in the MCA territory. The technique is used herein to model transient occlusion. If the filament is removed after 1 h, reperfusion is achieved (transient MCAO). This study determines the most efficacious dose and route of administration that reduce Rho-kinase 2 (ROCK2) activation following transient MCAO-induced stroke in mice. The pharmacodynamic response is also determined in this study.
# Twenty-eight 9-wk old C57BL/6 (Charles River Laboratories) were used in this study. For surgery, the mouse was placed in a supine position on an infrared heating pad. The fur over the ventral neck was shaved and the skin was disinfected with 70% ethanol and povidone iodine. Under a stereo dissecting microscope, a 1 cm midline incision was made on the neck and retractors were used to expose the left common carotid artery (CCA), the external carotid artery (ECA) and the internal carotid artery (ICA). The arteries were carefully dissected to free them from surrounding nerves and fascia. The ECA was dissected further distally and two 8-0 silk sutures are tied around the ECA stump and a vascular clamp was applied at the bifurcation of the CCA into the ECA and ICA. A small incision was made at the end of ECA stump with Vannas-style spring scissors. A blunt 5-0 monofilament suture (Doccol) was inserted into the incision and advanced from the lumen of the ECA into the ICA for a distance of 9-10 mm beyond the bifurcation of CCA to occlude the origin of MCA. For the mouse model, a distance of 9 mm-11 mm rostral to the CCA bifurcation is inserted. After 60 min., the monofilament was removed. The incision was sutured with 4.0 prolene sutures. […] The mouse is allowed to recover on a heating pad until thermoregulation is re-established.
# For Western blot analysis, mice were anesthetized using isoflurane and decapitated. […]
# 20 μL protease inhibitor (Halt, Protease, Fisher Scientific, Pittsburgh, Pa.) and 10 μL phosphatase inhibitor (Fisher Scientific) were added to 1 mL RIPA buffer (Santa Cruz Biotechnology, Dallas, Tex.). […] The protein concentration of each sample was determined using the DC Protein Assay Kit and following the manufacturer's instructions.
# The left and right hemispheres of each brain were homogenized and prepared for Western blotting, and the signal of phospho-cofilin was measured quantitatively by densitometry compared to an internal standard, cyclophilin. […]
# mouse hepatocytes = assay: Metabolism in cultured hepatocytes; type: in vitro ADME
# canine hepatocytes = assay: Metabolism in cultured hepatocytes; type: in vitro ADME; conditions: Dog hepatocytes
# [2] = Systolic blood pressure in mice, tail cuff plethysmography; conditions: 0.5, 1, 3 mg/kg in drinking water; Example 18, present tense
# Experimental: Three test cohorts of mice are housed with unlimited access to normal chow and drinking water. For the first 5 days, the mice are handled daily to habituate them to contact and their blood pressures measured using a multi-animal tail cuff plethysmography apparatus (MRBP Tail Cuff Blood Pressure System; IITC Life Science; Woodland Hills, Calif.). […] These values serve as the baseline.
# The third cohort receives normal, unadulterated drinking water. On day 8, blood pressure is measured for all mice.
# After the day 8 blood pressure measurement, drug dosage in the 2 test cohorts is increased to 1 mg/kg-body weight and the cohort continues for 3 days at the new dose. On day 11, blood pressure is again recorded by tail cuff plethysmography for all mice during a 5 min. recording session.
# Following the blood pressure recording, ON DAY 11, drug dosages in drinking water of test groups are increased up to 3 mg/kg-body weight and the cohorts continue for 3 days at the new dose. On day 14, blood pressure is recorded by tail cuff plethysmography for all mice during a 5 min. recording session.
# ROCK1 = ROCK1 (Homo sapiens (Human), UniProt Q13464); assay: Direct filter-binding radiometric kinase assay, IC50 determination; type: biochemical
# ROCK1, sequence (Q13464 2-1354 limits assumed): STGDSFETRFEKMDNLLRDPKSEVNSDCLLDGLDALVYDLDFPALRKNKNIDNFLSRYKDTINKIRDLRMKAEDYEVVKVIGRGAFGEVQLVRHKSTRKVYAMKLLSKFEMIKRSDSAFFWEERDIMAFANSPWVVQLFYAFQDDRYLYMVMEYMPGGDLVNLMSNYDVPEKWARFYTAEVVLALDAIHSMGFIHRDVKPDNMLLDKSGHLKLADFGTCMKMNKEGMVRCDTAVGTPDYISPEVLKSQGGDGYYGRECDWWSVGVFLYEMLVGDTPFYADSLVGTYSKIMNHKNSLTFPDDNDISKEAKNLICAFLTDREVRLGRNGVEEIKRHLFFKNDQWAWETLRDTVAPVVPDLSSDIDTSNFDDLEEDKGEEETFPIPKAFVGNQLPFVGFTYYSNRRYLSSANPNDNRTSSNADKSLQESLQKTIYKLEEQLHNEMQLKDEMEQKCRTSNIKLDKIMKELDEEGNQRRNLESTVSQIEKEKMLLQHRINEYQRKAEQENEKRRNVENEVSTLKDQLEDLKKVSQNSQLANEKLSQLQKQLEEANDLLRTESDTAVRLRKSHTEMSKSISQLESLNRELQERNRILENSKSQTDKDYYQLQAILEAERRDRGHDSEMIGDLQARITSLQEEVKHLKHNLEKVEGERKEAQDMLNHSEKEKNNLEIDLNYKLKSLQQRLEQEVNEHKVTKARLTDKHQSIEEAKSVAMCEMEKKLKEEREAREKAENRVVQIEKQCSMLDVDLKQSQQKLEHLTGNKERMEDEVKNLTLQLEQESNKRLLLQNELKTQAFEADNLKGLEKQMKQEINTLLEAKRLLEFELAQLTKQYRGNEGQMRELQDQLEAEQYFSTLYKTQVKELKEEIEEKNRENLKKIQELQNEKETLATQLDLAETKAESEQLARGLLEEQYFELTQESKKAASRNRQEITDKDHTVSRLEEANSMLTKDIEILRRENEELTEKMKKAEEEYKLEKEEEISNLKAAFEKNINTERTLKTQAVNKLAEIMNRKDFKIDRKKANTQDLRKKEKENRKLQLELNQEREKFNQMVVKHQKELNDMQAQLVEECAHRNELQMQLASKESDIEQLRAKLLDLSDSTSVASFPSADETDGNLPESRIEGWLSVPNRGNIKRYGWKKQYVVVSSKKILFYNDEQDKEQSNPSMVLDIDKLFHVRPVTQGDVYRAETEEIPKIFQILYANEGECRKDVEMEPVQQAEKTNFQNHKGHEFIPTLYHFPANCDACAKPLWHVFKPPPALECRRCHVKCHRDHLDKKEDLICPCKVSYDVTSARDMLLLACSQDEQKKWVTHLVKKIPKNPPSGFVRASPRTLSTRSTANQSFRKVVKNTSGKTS
# Experimental: Variations in ATP concentrations were tested to better understand potential selectivity in ischemic and diseased tissue where ATP concentrations may be low and impact selectivity.
# […] Both services use a direct filter-binding, radiometric kinase assay with slight variation in protocol.
# The top concentration tested was 100 μM for both services. Test compounds were prepared in 100% DMSO at 50× final test concentration and were diluted to 1× in the assay with a final DMSO concentration of 2%.
# For one assay, the substrate […] (SEQ ID NO:1) (30 μM) was mixed with reaction buffer (Table 4) and the kinase domain from either the ROCK1 or ROCK2 (as indicated in Table 4). Next, the compounds (in DMSO) were delivered into the mixture via acoustic mixing technology (Echo550, nanoliter range) (SelectScience, Waltham, Mass.), and incubated at RT for 20 min. […] Reactions were then spotted onto P81 ion exchange paper followed by scintillation counting.
# The reaction was stopped by the addition of 3% phosphoric acid and 10 μL of the reaction was spotted onto P30 filtermat, washed 3 times in 75 mM phosphoric acid and once in methanol prior to scintillation counting.
# [3] = Brain penetration after IV, IP or PO administration in C57BL/6 mice; type: in vivo, mouse; conditions: IV 5 mg/kg, IP 10 mg/kg, PO 30 mg/kg
# Experimental: To determine the plasma concentrations and pharmacokinetics of the test compounds and test article following a single intravenous (IV) (5 mg/kg), intraperitoneal (IP) (10 mg/kg), or oral dose (PO) (30 mg/kg) administration to C57BL/6 male mice, the following testing [WAS/IS] performed according to the conductions set forth in Table 14.
# The test drug is provided once as follows: Each I.V. dosing syringe is weighed loaded and unloaded to at least 4 decimal places. The actual dose (5 mg/kg) administered to the animal is the difference between the loaded and unloaded dosing syringe weights. Each IP dosing syringe is weighed loaded and unloaded to at least 4 decimal places. […]
# Following I.V. dose administration, whole brain is collected following cardiocentesis from 4 animals at each of the following time points post-dose: 0.083 hr, 0.5 hr, 2 hr, 6 hr, 12 hr, and 24 hr. […] Whole brain is rinsed in 1×PBS, the tissue weight recorded and snap frozen in pre-labeled tubes using liquid nitrogen. In addition, whole brain from 5 naïve mice is harvested at 24 hr, rinsed in 1×PBS, the tissue weight recorded and snap frozen in pre-labeled tubes using liquid nitrogen.
# Samples are analyzed by LC/MS/MS using an Agilent 6410 mass spectrometer coupled with an Agilent 1200 HPLC and a CTC PAL chilled autosampler, all controlled by MassHunter software (Agilent). […]
# ROCK2 = ROCK2 (Homo sapiens (Human), UniProt O75116); assay: ROCK2 inhibition curves, MYPT1 substrate plate assay; type: biochemical; conditions: purified ROCK2, MYPT1 substrate
# ROCK2, sequence (O75116 whole entry, species assumed): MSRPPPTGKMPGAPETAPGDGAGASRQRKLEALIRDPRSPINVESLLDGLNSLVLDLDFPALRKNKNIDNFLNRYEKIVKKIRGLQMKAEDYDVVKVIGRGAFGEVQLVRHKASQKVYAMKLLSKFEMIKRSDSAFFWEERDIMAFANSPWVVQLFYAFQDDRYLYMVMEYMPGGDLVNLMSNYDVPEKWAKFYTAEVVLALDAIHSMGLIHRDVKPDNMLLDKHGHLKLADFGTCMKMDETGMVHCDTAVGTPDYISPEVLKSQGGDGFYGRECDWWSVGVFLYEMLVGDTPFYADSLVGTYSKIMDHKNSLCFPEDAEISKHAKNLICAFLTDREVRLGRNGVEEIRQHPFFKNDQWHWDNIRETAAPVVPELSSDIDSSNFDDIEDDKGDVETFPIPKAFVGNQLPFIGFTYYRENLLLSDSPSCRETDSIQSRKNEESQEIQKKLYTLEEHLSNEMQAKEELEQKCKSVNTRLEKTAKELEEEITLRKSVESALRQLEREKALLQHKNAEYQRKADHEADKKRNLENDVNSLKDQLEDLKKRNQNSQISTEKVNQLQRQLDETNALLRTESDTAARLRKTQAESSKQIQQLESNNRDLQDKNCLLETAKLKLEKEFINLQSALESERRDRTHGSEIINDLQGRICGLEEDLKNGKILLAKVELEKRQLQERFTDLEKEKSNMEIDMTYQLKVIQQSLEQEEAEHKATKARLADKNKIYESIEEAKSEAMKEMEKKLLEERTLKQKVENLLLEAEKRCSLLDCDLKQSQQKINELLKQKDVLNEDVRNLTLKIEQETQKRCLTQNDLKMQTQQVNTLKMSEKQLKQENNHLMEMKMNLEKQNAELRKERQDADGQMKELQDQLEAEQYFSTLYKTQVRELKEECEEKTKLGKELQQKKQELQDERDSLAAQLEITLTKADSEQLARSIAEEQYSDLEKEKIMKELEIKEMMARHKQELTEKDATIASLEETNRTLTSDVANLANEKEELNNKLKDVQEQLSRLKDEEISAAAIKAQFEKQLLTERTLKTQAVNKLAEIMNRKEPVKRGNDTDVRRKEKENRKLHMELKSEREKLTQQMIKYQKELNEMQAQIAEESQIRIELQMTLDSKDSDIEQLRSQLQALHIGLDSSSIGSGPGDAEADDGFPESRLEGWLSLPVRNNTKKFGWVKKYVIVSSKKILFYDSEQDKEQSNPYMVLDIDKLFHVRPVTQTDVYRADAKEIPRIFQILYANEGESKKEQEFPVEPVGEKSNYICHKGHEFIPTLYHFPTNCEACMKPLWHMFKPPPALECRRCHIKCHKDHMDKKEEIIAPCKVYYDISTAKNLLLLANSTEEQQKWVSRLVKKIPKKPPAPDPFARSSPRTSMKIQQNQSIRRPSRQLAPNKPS
# Experimental: Each compound was dissolved at 100 mM in DMSO. This compound-DMSO solution is diluted to 500 μM in dH2O. Serial dilutions were prepared so that a semi-log range of compound is present after being diluted 5× in other assay reagents, from 100 μM through 1 nM.
# 10 μL of each concentration of each compound was added in duplicate to individual wells of a 96-well Maxisorp plate (ThermoFisher) pre-coated with the ROCK2 substrate MYPT1 (ThermoFisher). dH2O is added as a negative control.
# Using a multichannel pipettor, […] of final volume per well was made by the addition of the following of each solution to begin the reaction: 10 μL 20 mM MOPS pH 7.2, 25 mM β-glycerophosphate, 5 mM EGTA, 1 mM Na3VO4, and 1 mM DTT, 10 μL 50 μM ATP, 10 μL 75 mM MgCl2, and 10 μL 1 mU/μL ROCK2 solution. […]
# 100 μL TMB/E solution was added to each well with a multichannel pipette. Upon sufficient color development, the reaction was stopped using 100 μL stop solution and absorbance read using a Wallac Victor2 plate reader at 450 nm.
# Because absorbance values proportional to ROCK2 activity, plotting absorbance at 450 nm versus final concentration of metabolite and parent compound provides inhibition curves. Relative inhibitory profiles were determined through 4PL analysis of these curves. Variations in calculated IC50 are common before assay optimization due to variations in experimental variables.
SMILES,"duration of efficacy on phospho-cofilin ([1]; 10 mg/kg after reperfusion, examined 4 hr or 24 hr)",minimal effective levels ([1]; daily repeat dosing),"minimal effective dose to reverse ROCK activation ([1]; single intraperitoneal application, phospho-cofilin left versus right brain) [mg/kg]",½ Life (mouse hepatocytes) [min],metabolism by hepatocytes (canine hepatocytes),½ Life (canine hepatocytes) [min],effect on average systolic blood pressure [2],"IC50 (ROCK1; 10 μM ATP, Table 2, read-out: Compound IC50 ROCK1) [µM]","IC50 (ROCK1; Compound IC50 ROCK1 10 μM ATP, CRO Eurofins, 10 μM ATP) [µM]","IC50 (ROCK1; Compound IC50 ROCK1 10 μM ATP, CRO Reaction Biology, 10 μM ATP) [µM]","IC50 (ROCK1; Compound IC50 ROCK1 70 μM ATP, Km ATP 70 μM, Table 3) [µM]","IC50 (ROCK1; Compound IC50 ROCK1 70 μM ATP, Km ATP 70 μM, Table 7) [µM]",penetration into the brain [3],inhibitory activity for ROCK2 relative to parent BA-1049 (R) (ROCK2)
C[C@@H](N)C1CCN(S(=O)(=O)c2cccc3cnccc23)CC1 [BA-1049 (R)],at least 24 hr,less than 1 mg/kg,1,2.2,do not show any detectable metabolism,>480,little or no effect on average systolic blood pressure,3.9,3.9,0.69,29.6,29.6,able to penetrate the brain by the three routes of administration,–
C[C@@H](N)C1CCN(S(=O)(=O)c2cccc3c(=O)[nH]ccc23)CC1 [1-hydroxy-BA-1049 (R)],–,–,–,–,–,–,–,–,–,–,–,–,–,½ log more potent as an inhibitor of ROCK2 activity than the parent
